Data published in ChEMBL document CHEMBL1201862, “PubChem BioAssay data set” (2004).
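Where inhibition never reached the appropriate level, the endpoint shown equals the highest concentration tested. Otherwise, values were interpolated linearly from a five-concentration, 48-hour dose response in 96-well plates. GI50 is the concentration that inhibits growth by half.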 Active and inactive are the calls of the source. Rule as the data show it: active = GI50 up to about 1.1 µM and inactive = higher.

Legend:
Assay in all cases: NCI-60 cell line screen, 48 h
SK-OV-3 = test system: SK-OV-3
HCT-116 = test system: HCT-116
M19-MEL = test system: M19-MEL
UO-31 = test system: UO-31
DMS-273 = test system: DMS-273
HOP-92 = test system: HOP-92
MOLT-4 = test system: MOLT-4
OVCAR-4 = test system: OVCAR-4
DMS-114 = test system: DMS-114
A498 = test system: A498
IGROV-1 = test system: IGROV-1
786-0 = test system: 786-0
LOX IMVI = test system: LOX IMVI
COLO 205 = test system: COLO 205
HCT-15 = test system: HCT-15
KM-20L2 = test system: KM-20L2
RPMI-8226 = test system: RPMI-8226
NCI-H226 = test system: NCI-H226
HT-29 = test system: HT-29
NCI-H522 = test system: NCI-H522
SF-295 = test system: SF-295
ACHN = test system: ACHN
M14 = test system: M14
HOP-18 = test system: HOP-18
Malme-3M = test system: Malme-3M
CCRF-CEM = test system: CCRF-CEM
NCI-H460 = test system: NCI-H460
NCI-H23 = test system: NCI-H23
SK-MEL-28 = test system: SK-MEL-28
SNB-75 = test system: SNB-75
K562 = test system: K562
SW-620 = test system: SW-620
SNB-19 = test system: SNB-19
DLD-1 = test system: DLD-1
UACC-62 = test system: UACC-62
SK-MEL-5 = test system: SK-MEL-5
SF-268 = test system: SF-268
TK-10 = test system: TK-10
A549 = test system: A549
UACC-257 = test system: UACC-257
KM12 = test system: KM12
SN12C = test system: SN12C
HL-60 = test system: HL-60
SK-MEL-2 = test system: SK-MEL-2
OVCAR-5 = test system: OVCAR-5
HCC 2998 = test system: HCC 2998
OVCAR-3 = test system: OVCAR-3
SNB-78 = test system: SNB-78
CAKI-1 = test system: CAKI-1
SF-539 = test system: SF-539
EKVX = test system: EKVX
HOP-62 = test system: HOP-62
U-251 = test system: U-251
OVCAR-8 = test system: OVCAR-8
RXF 393 = test system: RXF 393
LXFL 529 = test system: LXFL 529
SR = test system: SR

COC(=O)C1=C(O)C(O)=C(C(=O)OC)C1
GI50 (SK-OV-3): > 100 µM (inactive)
GI50 (HCT-116): > 100 µM (inactive)
GI50 (M19-MEL): > 100 µM (inactive)
GI50 (UO-31): > 100 µM (inactive)
GI50 (DMS-273): > 100 µM (inactive)
GI50 (HOP-92): > 100 µM (inactive)
GI50 (MOLT-4): > 100 µM (inactive)
GI50 (OVCAR-4): > 100 µM (inactive)
GI50 (DMS-114): > 100 µM (inactive)
GI50 (A498): > 100 µM (inactive)
GI50 (IGROV-1): > 100 µM (inactive)
GI50 (786-0): > 100 µM (inactive)
GI50 (LOX IMVI): > 100 µM (inactive)
GI50 (COLO 205): > 100 µM (inactive)
GI50 (HCT-15): > 100 µM
GI50 (KM-20L2): > 100 µM (inactive)
GI50 (RPMI-8226): > 100 µM (inactive)
GI50 (NCI-H226): > 100 µM (inactive)
GI50 (HT-29): > 100 µM (inactive)
GI50 (NCI-H522): > 100 µM (inactive)
GI50 (SF-295): > 100 µM (inactive)
GI50 (ACHN): > 100 µM (inactive)
GI50 (M14): > 100 µM (inactive)
GI50 (HOP-18): > 100 µM (inactive)
GI50 (Malme-3M): > 100 µM (inactive)
GI50 (CCRF-CEM): > 100 µM (inactive)
GI50 (NCI-H460): > 100 µM (inactive)
GI50 (NCI-H23): > 100 µM (inactive)
GI50 (SK-MEL-28): > 100 µM (inactive)
GI50 (SNB-75): > 100 µM (inactive)
GI50 (K562): > 100 µM (inactive)
GI50 (SW-620): > 100 µM (inactive)
GI50 (SNB-19): > 100 µM (inactive)
GI50 (DLD-1): > 100 µM (inactive)
GI50 (UACC-62): 0.612 µM (active)
GI50 (SK-MEL-5): > 100 µM (inactive)
GI50 (SF-268): > 100 µM (inactive)
GI50 (TK-10): > 100 µM (inactive)
GI50 (A549): > 100 µM (inactive)
GI50 (UACC-257): > 100 µM (inactive)
GI50 (KM12): > 100 µM (inactive)
GI50 (SN12C): > 100 µM (inactive)
GI50 (HL-60): > 100 µM (inactive)
GI50 (SK-MEL-2): > 100 µM (inactive)
GI50 (OVCAR-5): > 100 µM (inactive)
GI50 (HCC 2998): > 100 µM (inactive)
GI50 (OVCAR-3): > 100 µM (inactive)
GI50 (SNB-78): > 100 µM (inactive)
GI50 (CAKI-1): > 100 µM (inactive)
GI50 (SF-539): > 100 µM (inactive)
GI50 (EKVX): > 100 µM (inactive)
GI50 (HOP-62): > 100 µM (inactive)
GI50 (U-251): > 100 µM (inactive)
GI50 (OVCAR-8): > 100 µM (inactive)
GI50 (RXF 393): > 100 µM (inactive)
GI50 (LXFL 529): > 100 µM (inactive)

CCCCCCCC/C=C\CCCCCCCC(=O)NCCN(CCN)C(=O)CCCCCCC/C=C\CCCCCCCC
GI50 (SK-OV-3): > 100 µM (inactive)
GI50 (HCT-116): > 100 µM (inactive)
GI50 (M19-MEL): > 100 µM (inactive)
GI50 (UO-31): > 100 µM (inactive)
GI50 (DMS-273): > 100 µM (inactive)
GI50 (HOP-92): > 100 µM (inactive)
GI50 (MOLT-4): > 100 µM (inactive)
GI50 (OVCAR-4): > 100 µM (inactive)
GI50 (DMS-114): > 100 µM (inactive)
GI50 (A498): > 100 µM (inactive)
GI50 (IGROV-1): > 100 µM (inactive)
GI50 (786-0): > 100 µM (inactive)
GI50 (LOX IMVI): > 100 µM (inactive)
GI50 (COLO 205): > 100 µM (inactive)
GI50 (HCT-15): > 100 µM
GI50 (KM-20L2): > 100 µM (inactive)
GI50 (RPMI-8226): > 100 µM (inactive)
GI50 (NCI-H226): > 100 µM (inactive)
GI50 (HT-29): > 100 µM (inactive)
GI50 (SF-295): > 100 µM (inactive)
GI50 (ACHN): > 100 µM (inactive)
GI50 (M14): > 100 µM (inactive)
GI50 (HOP-18): > 100 µM (inactive)
GI50 (Malme-3M): > 100 µM (inactive)
GI50 (CCRF-CEM): > 100 µM (inactive)
GI50 (NCI-H460): > 100 µM (inactive)
GI50 (NCI-H23): > 100 µM (inactive)
GI50 (SK-MEL-28): > 100 µM (inactive)
GI50 (K562): > 100 µM (inactive)
GI50 (SW-620): > 100 µM (inactive)
GI50 (SNB-19): > 100 µM (inactive)
GI50 (DLD-1): > 100 µM (inactive)
GI50 (UACC-62): > 100 µM (inactive)
GI50 (SK-MEL-5): > 100 µM (inactive)
GI50 (SF-268): > 100 µM (inactive)
GI50 (TK-10): > 100 µM (inactive)
GI50 (A549): > 100 µM (inactive)
GI50 (SR): > 100 µM (inactive)
GI50 (UACC-257): > 100 µM (inactive)
GI50 (SN12C): > 100 µM (inactive)
GI50 (HL-60): > 100 µM (inactive)
GI50 (OVCAR-5): > 100 µM (inactive)
GI50 (HCC 2998): > 100 µM (inactive)
GI50 (OVCAR-3): 78.7 µM (inactive)
GI50 (CAKI-1): 51.5 µM (inactive)
GI50 (HOP-62): > 100 µM (inactive)
GI50 (U-251): > 100 µM (inactive)
GI50 (OVCAR-8): > 100 µM (inactive)
GI50 (LXFL 529): > 100 µM (inactive)
